Source: the supplement of paper PMC10307832

Assays:
Assay in all cases: relative viability (nuclei count vs DMSO), 5 days (fraction); higher = more cells survive
[1] = compound: C1CCC(CC1)N(CCNCCC2=C3C(=C(C=C2)O)NC(=O)CO3)C(=O)CCNCCC4=CC(=C(C=C4)Cl)Cl [AZ505] + C[C@]1(O)C[C@@H](c2nc(-c3ccc4ccc(-c5ccccc5)nc4c3)c3c(N)nccn32)C1 [Linsitinib] (partner 1 µM)
Summary of the method: (§1)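 Nuclei were stained with Hoechst during a one-step fixation (final 0.05% Triton X-100, 1% formaldehyde, 1 ug/ml Hoechst) carried out 5 days after dosing, then counted on 4× images. The cells, lung cancer lines in 1536-well plates, had been dosed by pin tool the day after seeding with one drug alone or a fixed anchor-drug dose plus five library-drug doses (not always all listed) in √10 steps. Relative viability is the nuclei count in treated wells divided by that in vehicle wells, and each value is the median of duplicate plates.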

[2] = compound: Cn1c(=O)n(-c2ccc(C(C)(C)C#N)cc2)c2c3cc(-c4cnc5ccccc5c4)ccc3ncc21 [Dactolisib] + Nc1ncn([C@H]2C[C@H](O)[C@@H](CO)O2)c(=O)n1 [Decitabine] (partner 2 µM)
Summary of the method: as §1

[3] = compound: Cn1c(=O)n(-c2ccc(C(C)(C)C#N)cc2)c2c3cc(-c4cnc5ccccc5c4)ccc3ncc21 [Dactolisib] + CC(=O)c1c(C)c2cnc(Nc3ccc(N4CCNCC4)cn3)nc2n(C2CCCC2)c1=O [Palbociclib] (partner 0.5 µM)
Summary of the method: as §1

[4] = compound: C1CCC(CC1)N(CCNCCC2=C3C(=C(C=C2)O)NC(=O)CO3)C(=O)CCNCCC4=CC(=C(C=C4)Cl)Cl [AZ505] + C[C@@H](Oc1cc(-c2cnn(C3CCNCC3)c2)cnc1N)c1c(Cl)ccc(F)c1Cl [Crizotinib] (partner 1 µM)
Summary of the method: as §1

Cell Line | relative viability ([1]; first compound 0.08 µM) | relative viability ([1]; first compound 0.253 µM) | relative viability ([1]; first compound 0.8 µM) | relative viability ([1]; first compound 2.53 µM) | relative viability ([1]; first compound 8 µM) | relative viability ([2]; first compound 0.002 µM) | relative viability ([2]; first compound 0.006325 µM) | relative viability ([2]; first compound 0.02 µM) | relative viability ([2]; first compound 0.06325 µM) | relative viability ([2]; first compound 0.2 µM) | relative viability ([3]; first compound 0.002 µM) | relative viability ([3]; first compound 0.006325 µM) | relative viability ([3]; first compound 0.02 µM) | relative viability ([3]; first compound 0.06325 µM) | relative viability ([3]; first compound 0.2 µM) | relative viability ([4]; first compound 0.08 µM) | relative viability ([4]; first compound 0.253 µM) | relative viability ([4]; first compound 0.8 µM) | relative viability ([4]; first compound 2.53 µM) | relative viability ([4]; first compound 8 µM)
NCI-H2405 | 0.585 | 0.639 | 0.62 | 0.563 | 0.714 | 0.803 | 0.76 | 0.687 | 0.429 | 0.352 | 0.471 | 0.542 | 0.449 | 0.314 | 0.291 | 0.634 | 0.596 | 0.586 | 0.565 | 0.63
NCI-H3122 | 0.963 | 1.03 | 0.911 | 1.01 | 0.967 | 0.376 | 0.369 | 0.415 | 0.284 | 0.304 | 0.18 | 0.198 | 0.173 | 0.16 | 0.137 | 0.255 | 0.275 | 0.299 | 0.268 | 0.294
PC-3 [JPC-3] | 0.923 | 0.935 | 0.938 | 0.862 | 0.947 | 0.87 | 0.783 | 0.878 | 0.786 | 0.655 | 0.596 | 0.544 | 0.59 | 0.511 | 0.418 | 0.885 | 0.979 | 0.916 | 0.94 | 1.03
PC-14 | 0.88 | 0.948 | 0.922 | 0.881 | 0.951 | 0.333 | 0.222 | 0.261 | 0.161 | 0.138 | 0.654 | 0.487 | 0.446 | 0.0827 | 0.0725 | 0.787 | 0.805 | 0.934 | 0.846 | 0.95
RERF-LC-KJ | 0.857 | 0.85 | 0.929 | 0.897 | 0.902 | 0.752 | 0.726 | 0.644 | 0.316 | 0.443 | 1.19 | 1.12 | 0.863 | 0.438 | 0.452 | 0.769 | 0.848 | 0.774 | 0.842 | 0.833
SK-LU-1 | 0.45 | 0.592 | 0.798 | 0.588 | 0.765 | 0.523 | 0.72 | 0.6 | 0.44 | 0.388 | 0.335 | 0.393 | 0.337 | 0.268 | 0.281 | 0.608 | 0.731 | 0.649 | 0.664 | 0.714
SK-MES-1 | 0.89 | 0.922 | 0.97 | 0.879 | 1.03 | 0.43 | 0.362 | 0.369 | 0.251 | 0.231 | 0.297 | 0.298 | 0.269 | 0.247 | 0.214 | 0.901 | 0.967 | 0.947 | 0.904 | 0.916
SW 1573 | 0.666 | 0.828 | 0.849 | 0.872 | 0.829 | 0.556 | 0.336 | 0.299 | 0.185 | 0.149 | 0.395 | 0.324 | 0.225 | 0.154 | 0.116 | 0.878 | 0.868 | 0.927 | 0.733 | 0.886
